Where two headings read alike, the source gives them in different places.
How the values were obtained:
[1] = Static thermostability of stabilized polyvinyl chloride resin, GARDNER Scale comparator, 185° C.; conditions: 185° C. and 210° C. trials, in words
Description: The stabilizing power of the substances of the invention was studied by determining the static thermostability of the following resin: […]
Polyvinyl chloride resin
Calcium-12-hydroxy-stearate
Stabilizer from 0.1 to 1
SL 2016 represents a solution of zinc-2-ethyl-hexanoate in a mixture of aromatic hydrocarbons boiling between 158° and 184° C.
The different ingredients were mixed and calendered in a mixer of which the cylinders were heated to 160° C.
The rigid sheets so obtained were then heated in a oven to a temperature of 185° or 210° C., until incipient carbonization.
A oven with a rotating drum, ventilated and equipped with a thermostat was used for this operation.
In the trials described hereunder the behaviour of the sheets containing one of the stabilizers to be tested was compared to that of sheets of the same formula but containing 2-phenyl-indole as stabilizer.
Comparison can be made by one of two methods, namely:
(1) The coloration of the sheets, of which samples were removed from the oven at fixed intervals, was compared to a standard scale of coloration, known as the GARDNER Scale, and expressed in terms of the reference figures of the GARDNER Scale.
Comparisons were made with a GARDNER Scale comparator which contains 18 filters of colored glass and which offers the possibility of observing simultaneously by transparency and in a limited field of view both the sheet and the reference filters.
It may happen that the color of the sheets is far removed from that of the GARDNER Scale, in which case comparison is difficult, if not impossible.
The following results were obtained at a temperature of 185° C., using the method described above: […]

[2] = water; for Extractibility compared with 2-phenyl-indole: in words
Description: This study was carried out in accordance with the requirements of the Food and Drug Administration (U.S.A.).
The extractions were performed in semi-rigid bottles, prepared with the resin of which the composition is given below, and with the following solvents: water, ethanol-water 50/50, an aqueous solution of acetic acid (3%) and finally heptane.
The ratio of the volume of solvent to the surface of plastic material exposed to extraction was about 1 to 100ml of solvent, taking into account the geometric characteristics of the bottles.
Heating A thermostated oven for the non-inflammable
solvents (water and acetic acid).
A thermostated water-bath for the inflammable
solvents (alcohol and heptane).
The quantity of stabilizer extracted was determined by colorimetric assay using p-dimethylaminobenzaldehyde, in accordance with the method described in Analytical Chemistry 36,425-26 (1964).
Results are expressed in μg of stabilizer extracted per litre of extraction solvent or, which is the same per 1000cm^2 of surface extracted.

mice [3] = conditions: known stabilizer, in words; cited from earlier work
[4] = known stabilizer, in words; cited from earlier work
[5] = Acute toxicity (LD50 / LDO), oral route, mice; type: in vivo; conditions: mouse, in vivo
Description: (§1) The toxicity of the stabilizers of the invention was studied first and the satisfactory results obtained were such as to justify continuation of the investigation.
(§2) The acute toxicity (LD50) of the stabilizers listed below was measured by determining the dose of substance which provoked the death of 50% of the animals treated.
(§3) A gummy suspension of the substance under study was administered by oral route to groups of at least ten mice and the following results were observed: […]

mice [6] = experiment: Acute toxicity (LD50 / LDO), oral route, mice; type: in vivo
Description: as §1, §2, §3

## COc1cc(-c2cc3cccc(C)c3[nH]2)ccc1O [Stabilizer 8, 2-(3'-methoxy-4'-hydroxy-phenyl)-7-methyl-indole]
[1]
  Stabilizing power compared with 2-phenyl-indole: superior to 2-phenyl-indole

## COc1ccc2cc(-c3ccccc3)[nH]c2c1 [Stabilizer 1, 2-phenyl-6-methoxy-indole]
[1]
  Stabilizing power compared with 2-phenyl-indole: superior to 2-phenyl-indole

## COc1ccc(-c2cc3cccc(C)c3[nH]2)cc1 [Stabilizer 5, 2-(4'-methoxy-phenyl)-7-methyl-indole]
[1]
  Stabilizing power compared with 2-phenyl-indole: superior to 2-phenyl-indole

## Oc1ccc2cc(-c3ccccc3)[nH]c2c1 [Stabilizer 2, 2-phenyl-6-hydroxy-indole]
[2]
  Extractibility, times less than 2-phenyl-indole: at least 10 times
  Extractibility compared with 2-phenyl-indole: markedly superior to 2-phenyl-indole
[1]
  Stabilizing power compared with 2-phenyl-indole: superior to 2-phenyl-indole

## COc1cc(-c2cc3cc(C)ccc3[nH]2)ccc1O [Stabilizer 15, 2(3'-methoxy-4'-hydroxy-phenyl)-5-methyl-indole]
[1]
  Stabilizing power compared with 2-phenyl-indole: superior to 2-phenyl-indole

## Oc1ccc2[nH]c(-c3ccccc3)cc2c1 [Stabilizer 19, 2-phenyl-5-hydroxy-indole]
[1]
  Stabilizing power compared with 2-phenyl-indole: superior to 2-phenyl-indole

## c1ccc(-c2cc3ccccc3[nH]2)cc1 [2-phenyl-indole]
Mice [3]
  Toxicity: low toxicity
[4]
  Stabilizing power: good stabilizing power

## COc1ccc(-c2cc3ccc(C)cc3[nH]2)cc1 [Stabilizer 6, 2-(4'-methoxy-phenyl)-6-methyl-indole]
[5]
  LD50: > 3000 mg/kg
Mice [6]; LD50 table
  Toxic symptoms: none
[1]
  Stabilizing power compared with 2-phenyl-indole: superior to 2-phenyl-indole

## CCCCCCCCCCCCOc1ccc(-c2cc3ccc(C)cc3[nH]2)cc1 [Stabilizer 12, 2-(4'-dodecyloxy-phenyl)-6-methyl-indole]
[2]; aqueous ethanol and heptane
  Extractibility compared with 2-phenyl-indole: markedly less extractible than 2-phenyl-indole
[1]
  Stabilizing power compared with 2-phenyl-indole: superior to 2-phenyl-indole

## COc1ccc(-c2cc3cc(C)ccc3[nH]2)cc1 [Stabilizer 4, 2-(4'-methoxy-phenyl)-5-methyl-indole]
Mice [6]
  LDO (maximal dose which does not provoke any death): > 500 mg/kg
Mice [6]; LDO table
  Toxic symptoms: none
[1]
  Stabilizing power compared with 2-phenyl-indole: superior to 2-phenyl-indole

## CCCCCCCCCCCCOc1ccc(-c2cc3ccc(C)cc3[nH]2)cc1 [Stabilizer 12]
[5]
  LD50: > 3000 mg/kg
Mice [6]; LD50 table
  Toxic symptoms: none

## Oc1ccc2[nH]c(-c3ccccc3)cc2c1 [Stabilizer 19]
Mice [6]
  LDO (maximal dose which does not provoke any death): > 500 mg/kg
Mice [6]; LDO table
  Toxic symptoms: none

## CCCCCCCCCCCCOc1ccc(-c2cc3cccc(C)c3[nH]2)cc1C [Stabilizer 14, 2-(3'-methyl-4'-dodecyloxy-phenyl)-7-methyl-indole]
[2]; aqueous ethanol and heptane
  Extractibility compared with 2-phenyl-indole: markedly less extractible than 2-phenyl-indole

## CCCCCCCCCCCCOc1ccc2[nH]c(-c3ccccc3)cc2c1 [Stabilizer 3, 2-phenyl-5-dodecyloxy-indole]
[5]
  LD50: > 5000 mg/kg
Mice [6]; LD50 table
  Toxic symptoms: none
[2]; aqueous ethanol and heptane
  Extractibility compared with 2-phenyl-indole: markedly less extractible than 2-phenyl-indole
[1]
  Stabilizing power compared with 2-phenyl-indole: superior to 2-phenyl-indole

## COc1cc(-c2cc3ccc(C)cc3[nH]2)ccc1O [Stabilizer 13, 2(3'-methoxy-4'-hydroxy-phenyl)6-methyl-indole]
[1]
  Stabilizing power compared with 2-phenyl-indole: superior to 2-phenyl-indole
